# Laboratory results published in ChEMBL document CHEMBL1857833, “Screening and optimization of specific chemical series against human African Trypanosomiasis (HAT)”.
# Experiments:
# [1] = DNDI: Cytotoxicity against L929 mouse fibroblasts, 72 hour.; format: toxicity, cell-based; conditions: mouse, L929 mouse fibroblasts
# Trypanosoma brucei = assay: DNDI: Inhibition of Human African Trypanosomiasis, SBRI 427, in vitro; format: functional, organism-based
# [2] = Trypanosoma brucei, SBRI 427, read-out: IC50
Structure (SMILES),IC50 at 72 h [1] [µg/mL],IC50 (Trypanosoma brucei; [2]) [µg/mL],IC50 (Trypanosoma brucei) [µg/mL]
N#Cc1nc(-c2ccccc2)oc1N,> 10,> 5,
Cc1ccc(CNC(c2nc(Cc3ccccc3)c(N3CCOCC3)o2)C2CC2)cc1 (configuration not stated),> 10,> 5,
CCCCc1ccc(-c2nc(Nc3ccccn3)co2)cc1,> 10,> 5,
COc1ccccc1CNC(c1ccccc1)c1nc(-c2ccccc2)c(N2CCOCC2)o1 (configuration not stated),> 10,> 5,
CCCCNCc1coc(-c2ccc(CCCC)cc2)n1,2.5,0.75,
COc1ccc(CNC(c2nc(Cc3ccccc3)c(N3CCCCC3)o2)C2CCCCC2)cc1OC (configuration not stated),> 10,> 5,
CCCCc1ccc(-c2nc(CNC(CC)CC)co2)cc1,1.83,0.63,
COc1cccc(C(NCc2ccc(C)cc2)c2nc(Cc3ccccc3)c(N3CCOCC3)o2)c1 (configuration not stated),> 10,> 5,
c1ccc(-c2nc(C(NCCCn3ccnc3)C3CC3)oc2N2CCOCC2)cc1 (configuration not stated),> 10,> 5,
CCCCc1ccc(-c2nc(CNCCCN(CC)CC)co2)cc1,0.89,0.1,
CCCCc1ccc(-c2nc(CN3CCN(c4ccccc4)CC3)co2)cc1,> 10,> 5,
c1ccc(Cc2nc(C(NCc3ccco3)C3CC3)oc2N2CCOCC2)cc1 (configuration not stated),> 10,> 5,
O=C(NCC1C(O)=C(C(=O)c2ccccc2)C(=O)N1C(=O)OCc1ccccc1)OCc1ccccc1 (configuration not stated),9.13,> 5,
Cc1ccc(CNC(c2nc(Cc3ccccc3)c(N3CCOCC3)o2)c2ccccc2C)cc1 (configuration not stated),> 10,> 5,
CCCCCC(C)NCc1coc(-c2cc(Cl)ccc2O)n1 (configuration not stated),2.33,2.46,
CCOCCCNC(c1nc(C(C)C)c(N2CCOCC2)o1)C1CC1 (configuration not stated),> 10,> 5,
Cc1ccc(CNC(CC(C)C)c2nc(-c3ccccc3)c(N3CCOCC3)o2)cc1 (configuration not stated),> 10,4.22,
Cc1ccc(CNC(c2nc(-c3ccccc3)c(N3CCOCC3)o2)C2CC2)cc1 (configuration not stated),> 10,> 5,
CN(C)CCCNCc1coc(-c2ccc(OC3CCCC3)cc2)n1,> 10,> 5,
CC(C)COc1ccc(-c2nc(CNCCCN(C)C)co2)cc1,> 10,> 5,
COc1ccc(CNC(CC(C)C)c2nc(C(C)C)c(N3CCOCC3)o2)cc1 (configuration not stated),> 10,> 5,
CCCCc1ccc(-c2nc(CNC3CCCCC3)co2)cc1,1.44,0.41,

Structure (SMILES),IC50 at 72 h [1] [µg/mL],IC50 (Trypanosoma brucei; [2]) [µg/mL],IC50 (Trypanosoma brucei) [µg/mL]
c1ccc(-c2nc(C(NCc3ccco3)C3CC3)oc2N2CCOCC2)cc1 (configuration not stated),> 10,> 5,
c1ccc(Cc2nc(C(NCc3ccc4c(c3)OCO4)C3CC3)oc2N2CCOCC2)cc1 (configuration not stated),> 10,> 5,
CCCCc1ccc(-c2nc(CNC3CCC3)co2)cc1,3.51,1.3,
CCCCCCNCc1coc(-c2ccc(CCCC)cc2)n1,1.15,0.37,
CCCCCC(C)NCc1coc(-c2cc(C(C)=O)ccc2O)n1 (configuration not stated),3.47,2.32,
CCCCc1ccc(-c2nc(CNCCCN3CCOCC3)co2)cc1,2.08,0.34,
CCC(C)C(NCc1cccc(C)c1)c1nc(-c2ccccc2)c(N2CCCCC2)o1 (configuration not stated),> 10,> 5,
CCCCc1ccc(-c2nc(CNCCC)co2)cc1,4.29,0.75,
CCCCCC(C)NCc1coc(-c2ccc(OC(F)F)cc2)n1 (configuration not stated),3.82,2.15,
CCCCCC(C)NCc1coc(-c2ccc(OC(F)(F)C(F)F)cc2)n1 (configuration not stated),4.3,1.42,
COc1cccc(OC)c1CNCc1coc(-c2ccc(OC(C)C)cc2)n1,4.15,2.88,
CCCCc1ccc(-c2nc(CN3CCN(C(=O)OC(C)(C)C)CC3)co2)cc1,> 10,> 5,
COc1ccc(CNC(CC(C)C)c2nc(Cc3ccccc3)c(N3CCCCC3)o2)cc1OC (configuration not stated),> 10,> 5,
CCCCCC(C)NCc1coc(-c2ccc(OCc3ccc(F)cc3)cc2)n1 (configuration not stated),0.95,0.38,
CCCCCC(C)NCc1coc(-c2cc(C(F)(F)F)cc(C(F)(F)F)c2)n1 (configuration not stated),> 10,2.06,
CCCCc1ccc(-c2nc3ncccc3o2)cc1,> 10,> 5,
O=C1CC(=O)N(C(=O)OCc2ccccc2)C1COCc1ccccc1 (configuration not stated),> 10,> 5,
CCCCCC(C)NCc1coc(-c2ccccc2C#N)n1 (configuration not stated),> 10,3.76,
Cc1ccc(/C(=N/O)NC2CCCCC2)c(Oc2cc(Cl)ccc2Cl)n1,> 10,1.18,2.27
CCCCCC(C)NCc1coc(-c2ccc(C)c(C)c2)n1 (configuration not stated),1.86,0.74,
CCC(C)C(NCc1ccc(OC)c(OC)c1)c1nc(Cc2ccccc2)c(N2CCCCC2)o1 (configuration not stated),> 10,> 5,
O/N=C(\NC1CCCCC1)c1cccnc1Oc1cc(Cl)ccc1Cl,> 10,0.57,

Structure (SMILES),IC50 at 72 h [1] [µg/mL],IC50 (Trypanosoma brucei; [2]) [µg/mL],IC50 (Trypanosoma brucei) [µg/mL]
CCC(C)C(NCc1ccc(OC)c(OC)c1)c1nc(-c2ccccc2)c(N2CCCCC2)o1 (configuration not stated),> 10,> 5,
CCCCCNCc1coc(-c2ccc(CCCC)cc2)n1,1.64,0.51,
CCCCc1ccc(-c2nc(CNC3CCCC3)co2)cc1,2.52,0.83,
Cc1ccc(CNC(c2nc(Cc3ccccc3)c(N3CCOCC3)o2)c2ccccc2F)cc1 (configuration not stated),> 10,> 5,
O=C(OC1=CC(=O)N(C(=O)OCc2ccccc2)C1COCc1ccccc1)c1ccccc1 (configuration not stated),> 10,> 5,
CCCCc1ccc(-c2nc(Nc3cccnc3)co2)cc1,6.24,> 5,
CCCCc1ccc(-c2nc(CN3C(=O)c4ccccc4C3=O)co2)cc1,> 10,> 5,
CCCCc1ccc(-c2nc(CNC(C)CCC)co2)cc1 (configuration not stated),2.03,0.61,
CCCCc1ccc(-c2nc(CNC3CC3)co2)cc1,7.55,3.05,
Cc1ccc(CNC(c2ccccc2)c2nc(-c3ccccc3)c(N3CCCCC3)o2)cc1 (configuration not stated),> 10,> 5,
CCc1cccc(N/C(=N\O)c2ccc(C)nc2Oc2cc(Cl)ccc2Cl)c1,4.7,3.96,
CC(C)CC(NCc1ccc(Cl)c(Cl)c1)c1nc(-c2ccccc2)c(N2CCOCC2)o1 (configuration not stated),> 10,4.46,
CCCCc1ccc(-c2nc(CNCc3ccncc3)co2)cc1,> 10,> 5,
CCCCc1ccc(-c2nc(CNC3CCN(Cc4ccccc4)CC3)co2)cc1,0.96,0.16,
Cc1ccc(CNC(c2cccc(Cl)c2)c2nc(Cc3ccccc3)c(N3CCOCC3)o2)cc1 (configuration not stated),> 10,> 5,
CCCCc1ccc(-c2nc(CNCc3ccccn3)co2)cc1,9.31,> 5,
CCOCCCNC(CC(C)C)c1nc(-c2ccccc2)c(N2CCOCC2)o1 (configuration not stated),> 10,> 5,
Nc1oc(-c2ccccc2)nc1C(=O)c1ccc(-c2ccccc2)cc1,5.23,> 5,
CCCCc1ccc(-c2nc(CNC(C)c3ccccc3)co2)cc1 (configuration not stated),3.33,0.87,
CCCCc1ccc(-c2nc(CNCCc3ccccc3)co2)cc1,2.3,0.69,
CCCCCC(C)NCc1coc(-c2ccc(Cl)cc2Cl)n1 (configuration not stated),3.47,0.9,
CC(C)CC(NCc1ccc(C(F)(F)F)cc1)c1nc(-c2ccccc2)c(N2CCOCC2)o1 (configuration not stated),> 10,2.58,

Structure (SMILES),IC50 at 72 h [1] [µg/mL],IC50 (Trypanosoma brucei; [2]) [µg/mL],IC50 (Trypanosoma brucei) [µg/mL]
CCC(C)C(NCc1ccc(C)cc1)c1nc(-c2ccccc2)c(N2CCCCC2)o1 (configuration not stated),> 10,> 5,
CCCCc1ccc(-c2nc(CNCCCn3ccnc3)co2)cc1,0.66,0.3,
CC(C)CC(NCCc1ccc(S(N)(=O)=O)cc1)c1nc(C(C)C)c(N2CCOCC2)o1 (configuration not stated),> 10,> 5,
COc1ccccc1C(=O)c1nc(-c2ccccc2)oc1N,> 10,> 5,
CCC(C)C(NCC(C)C)c1nc(Cc2ccccc2)c(N2CCCCC2)o1 (configuration not stated),> 10,> 5,
CCCCc1ccc(-c2nc(CN[C@H](C)c3ccccc3)co2)cc1,3.32,2.98,
Cc1ccc(CNC(CC(C)C)c2nc(C(C)C)c(N3CCOCC3)o2)cc1 (configuration not stated),> 10,> 5,
CCCCOc1ccc(-c2nc(CNCC(C)(C)C)co2)cc1,1.8,0.9,
CCCCc1ccc(-c2nc(CN)co2)cc1,> 10,> 5,
CCCCc1ccc(-c2nc(CNCc3ccccc3)co2)cc1,3.29,1.32,
Cc1ccc(CNC(c2cccc(C#N)c2)c2nc(Cc3ccccc3)c(N3CCOCC3)o2)cc1 (configuration not stated),> 10,> 5,
COc1ccccc1Oc1ncccc1/C(N)=N\O,> 10,> 5,
O/N=C(\Nc1cccc(F)c1)c1cccnc1Oc1cc(Cl)ccc1Cl,7.69,> 5,
CCCCc1ccc(-c2nc(CNCCc3cnc[nH]3)co2)cc1,2.43,0.37,
CCCCCc1ccc(-c2nc(CNC(C)CCCCC)co2)cc1 (configuration not stated),1.01,1.09,
CCCCCC(C)NCc1coc(-c2ccc([N+](=O)[O-])cc2)n1 (configuration not stated),7.08,4.99,
CCCCCC(C)NCc1coc(C2CCCCC2)n1 (configuration not stated),10,2.54,
CCCCCC(C)NCc1coc(-c2c(Cl)cccc2Cl)n1 (configuration not stated),5.76,2.04,
CCOCCCNC(c1nc(Cc2ccccc2)c(N2CCOCC2)o1)C1CC1 (configuration not stated),> 10,> 5,
CCCCc1ccc(-c2nc(COCC)co2)cc1,> 10,> 5,
C#[N+]C(C(=O)N1CCOCC1)c1ccccc1 (configuration not stated),> 10,> 5,
C#[N+]C(C(=O)N1CCOCC1)C(C)C (configuration not stated),> 10,> 5,
